From patent US20050163755A1, “Methods and compositions related to 1-caldesmon” (priority 2003, published 2005)

Experiments:
Type in all cases: cell-based, avian
DF-1 cells [1] = experiment: Prestress force: constitutive isometric tension on collagen membranes; conditions: 3 μM cytochalasin D
Protocol: Prestress was determined by the measured loss of constitutive isometric tension in response to cytochalasin D. Isometric tension was measured in cultured DF-1 cells inoculated on the surface of polymerized type 1 collagen membranes as described by Bodmer (1997). Isometric tension was simultaneously monitored in 2 separate isometric vectors to account for the presence of anisotropic tension. Constitutive tension was measured in cell-collagen lattices under unloaded conditions. To determine the optimal length-tension relationship during the unloaded state, the collagen gel was stretched with a micromanipulator that was attached to the transducer until a 10 mg increase in force was observed. The gel was progressively unloaded until no further decline in preload was observed. The length (Carson et al., 1989) of the gel was chosen as the no-load state. […] The constitutive tension was defined as the measured loss in tension upon the addition of cytochalasin D.
Since expression of wild-type human 1-CaD stabilizes membrane capacitance, it was next asked whether this enhancement was attributed to a reduction in myosin ATPase activity. […] Constitutive tension was measured under isometric no-load conditions in order to be consistent with the mechanical state at which transcellular resistance was measured. […]

DF-1 cells [2] = experiment: Cell viability assay, trypan blue; conditions: 48 hrs, 200 MOI virus or 3 μM cytochalasin D
Protocol: Cultured cells were transfected with Ad-CaD or the controlled virus using a calcium phosphate co-precipitation technique. Cells were washed free of virus and incubated for additional 48 hours in serum containing medium. Transfected cells were exposed to trypan blue dye and the fraction of viable cells was quantitated. Viability of cells transfected with Ad-CaD and controlled virus was compared to the cell viability measured in monolayers exposed to cytochalasin for the same corresponding period.

DF-1 cells [3] = experiment: Numerical modeling of transcellular impedance (α, Rb, Cm); conditions: 3 μM cytochalasin D, wild-type DF-1 cells
Description: A numerical analysis was used to calculate specific cell-cell and cell-substrate adhesion and membrane capacitance based on the measured transcellular impedance. The procedure is described in more detail elsewhere for endothelial cells (Moy et al., 2002, Moy et al., 2000), fibroblasts (Giaever and Keese, 1991), and for epithelial cells (Lo et al., 1995). The total impedance across a cell-covered electrode is composed of the impedance created between the ventral surface of the cell and the electrode (related to α and due to cell-matrix adhesion), the impedance created between cells (indicated by Rb and due to cell-cell adhesion), the transcellular impedance created from transcellular current conduction (Zm) and the impedance of a naked electrode (Zn). For these calculations, Zm is inversely related to membrane capacitance (Cm), which is dependent upon membrane convolution, which, in turn, is dependent on the cortical cytoskeleton. The data was expressed as a ratio of the real or imaginary measurement of cell-covered electrode to a naked electrode as a function of current frequency between 25 to 60,000 Hz. A calculated real and imaginary value was generated from the solutions of α, Rb and Cm obtained from a multi-response Levenberg-Maquardt non-linear optimization model of the real, imaginary, real and imaginary (in complex form) and real and imaginary (in magnitude form) data. An error evaluation was calculated using a Chi square analysis of the squared sum of the calculated and the experimental residuals as a function of current frequency. […]
Using a previously reported mathematical model, it was next evaluated whether the difference in 1-CaD-mediated change in transcellular resistance was due to effects on cell-cell, cell-matrix adhesion, membrane capacitance or a combination of all three. […] A calculated resistance and capacitance was generated from iterative solutions of α, Rb and Cm obtained from a multi-response Levenberg-Maquardt non-linear optimization model of the real and/or imaginary data. […]

DF-1 cells [4] = experiment: Transcellular resistance of confluent monolayers on microelectrode (adenovirus system); conditions: 3 μM cytochalasin D vs virus at MOI of 200
Protocol: Quantitative transcellular impedance measurements were acquired in real-time using a previously reported technique of inoculating cultured cells grown on the surface of microelectrodes coated with 100 μg/ml of fibronectin (Moy et al., 2002, Moy et al., 1998, Moy et al., 1996, Moy et al., 2000). A 1-volt, 4000 Hz AC signal was supplied through a 1-M Ω resistor to approximate a constant-current source. Voltage and phase data were measured with a SRS830 lock-in amplifier (Stanford Instruments) and then later stored and processed with a personal computer. The in-phase voltage, proportional to the resistance, and the out-of-phase voltage, proportional to the capacitive reactance, were measured. For most situations, resistance is reported because it is most sensitive to cytoskeletal-membrane properties. […] A uniform number of viable cells (˜650,000 cells per sample), which was determined by the amount of cells that excluded trypan blue, were inoculated on the electrode to control for the effect of cell viability. Transcellular resistance was measured as a fractional change and normalized to the cell resistance of wild-type DF-1 cells. Transcellular resistance was measured at 15 hours for inter-subject comparisons—a time point at which transcellular resistance was at steady state. […]

DF-1 cells [5] = experiment: In vitro wound closure assay to measure cell motility; conditions: mechanical wounding
Protocol: DF-1 cell motility was measured by wounding the cell monolayer and measuring wound closure by monitoring the traversed distance over time. DF-1 cells were plated at 70% confluence on glass cover slips coated with 100 μg/ml of fibronectin. These cells were then transfected with Ad-CaD or Ad-empty and allowed to grow to 100% confluence (2 days post-transfection). A wound was made in the monolayer using a sterile pipette tip with an outer diameter of 300 μm. The same area was captured sequentially at time intervals of 0, 1, 3, and 6 hours under phase contrast microscopy. The migrated distance was assessed at 3 locations that were separated by equal distance. Cell motility was determined as the average velocity for the 3 measurements for each time point. […]
It was next evaluated whether human wild-type 1-CaD expression disturbs cytopathic effects such as wound closure. Cell motility in response to mechanical wounding was measured to address this question. […] Cultured monolayers were subjected to mechanical wounding with a glass pipette and time-lapse images of cell motility were recorded over a period of several hours. Each image was equally divided into 3 regions, and the leading edge of cell migration was measured for each time point. Cell motility for each time point was determined as the average velocity measured for each of 3 regions. […]

## C=C1[C@@H](C)[C@H]2[C@H](Cc3ccccc3)NC(=O)[C@]23[C@H](OC(C)=O)/C=C/[C@@](C)(O)C(=O)[C@@H](C)C/C=C/[C@H]3[C@@H]1O [Cytochalasin D]
DF-1 cells [1]
  Constitutive tension: abolished constitutive tension
DF-1 cells [2]
  Cell viability / cell death: decreased cell viability in a statistically significant manner
DF-1 cells [3]
  Cm (membrane capacitance): statistically significant increase in Cm
  Rb (cell-cell adhesion): decrease in α and Rb
  α (cell-matrix adhesion): decrease in α and Rb
DF-1 cells [4]
  Transcellular resistance: greater loss in transcellular resistance than cells transfected with Ad-CaD or controlled virus
DF-1 cells [5]
  Wound repair: completely inhibited wound repair
